test system: SASKR: Russian thistle (Salsola iberica); test: Post-emergent Test III, herbicidal activity in wheat and barley; format: in vivo; details: Salsola tragus, post-emergence, 504 h; 35 g ai/ha; 21 days after application; read-out: Visual Gorowth Reduction (%) 21 days After Application SASKR
In short: (§1)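 Plants at the second to third true-leaf stage, grown in a greenhouse at about 18/17 °C with a 14 h photoperiod, were sprayed post-emergence at 187 L/ha with the high rate and ½× to 1/16× serial dilutions in an acetone/DMSO/crop-oil/surfactant carrier. Injury was rated visually at 21 d on a 0–100% scale, and GR20–GR90 were derived by probit analysis.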

**Q.** For `Nc1c(F)c(-c2cc(F)c(I)cc2F)nc(C(=O)O)c1Cl` [Compound 69], which pest or weed control at 35 g/ha is on record?
**A.** 85 to 94%

**Q.** Which pest or weed control at 35 g/ha does the source give for `C=Cc1c(C(=O)O)nc(-c2ccc(C(F)(F)F)c(F)c2)c(F)c1N` [Compound 86] here?
**A.** 60 to 74%

same assay, conditions: Salsola tragus, post-emergence, 504 h; 70 g ai/ha; 21 days after application; read-out: Visual Gorowth Reduction (%) 21 days After Application SASKR

**Q.** For `Nc1c(F)c(-c2cc(F)c(I)cc2F)nc(C(=O)O)c1Cl` [Compound 69], which pest or weed control at 70 g/ha is on record?
**A.** 85 to 94%

**Q.** Which pest or weed control at 70 g/ha does the source give for `C=Cc1c(C(=O)O)nc(-c2ccc(C(F)(F)F)c(F)c2)c(F)c1N` [Compound 86] here?
**A.** 75 to 84%

same assay, conditions: Salsola tragus, post-emergence, 504 h; Table 8; 35 g ai/ha; post-emergent; 21 d; read-out: Visual Growth Reduction (%) 21 Days After Application SASKR

**Q.** Which pest or weed control at 35 g/ha does the source give for `Nc1cc(-c2cc(F)c(Br)cc2F)nc(C(=O)O)c1Cl` [Compound 3] here?
**A.** 75 to 84%

same assay, conditions: Salsola tragus, post-emergence, 504 h; Table 8; 70 g ai/ha; post-emergent; 21 d; read-out: Visual Growth Reduction (%) 21 Days After Application SASKR

**Q.** Which pest or weed control at 70 g/ha does the source give for `Nc1cc(-c2cc(F)c(Br)cc2F)nc(C(=O)O)c1Cl` [Compound 3] here?
**A.** 85 to 94%

same assay, conditions: Table 8; dose for 50 percent growth reduction, probit analysis; 21 d

**Q.** How did the “GR50 SASKR” value turn out when `Nc1cc(-c2cc(F)c(Br)cc2F)nc(C(=O)O)c1Cl` [Compound 3] was run?
**A.** 2 g ai/ha

same assay, conditions: Table 8; dose for 80 percent growth reduction, probit analysis; 21 d

**Q.** `Nc1cc(-c2cc(F)c(Br)cc2F)nc(C(=O)O)c1Cl` [Compound 3] was tested. Which “GR80 SASKR” value did it give?
**A.** 28 g ai/ha

same assay, conditions: probit analysis; dose for 50 percent growth reduction; 21 days after application

**Q.** For `Nc1c(F)c(-c2cc(F)c(I)cc2F)nc(C(=O)O)c1Cl` [Compound 69], which “GR50 SASKR” value is on record?
**A.** 7 g ai/ha

**Q.** How did the “GR50 SASKR” value turn out when `C=Cc1c(C(=O)O)nc(-c2ccc(C(F)(F)F)c(F)c2)c(F)c1N` [Compound 86] was run?
**A.** 18 g ai/ha

same assay, conditions: probit analysis; dose for 80 percent growth reduction; 21 days after application

**Q.** For `Nc1c(F)c(-c2cc(F)c(I)cc2F)nc(C(=O)O)c1Cl` [Compound 69], which “GR80 SASKR” value is on record?
**A.** 29 g ai/ha

**Q.** With `C=Cc1c(C(=O)O)nc(-c2ccc(C(F)(F)F)c(F)c2)c(F)c1N` [Compound 86] as the molecule, how does the “GR80 SASKR” value read?
**A.** 66 g ai/ha

test system: VIOSS: wild pansy (Viola tricolor), field violet (Viola arvensis); test: as above; format: in vivo; details: Table 8; dose for 50 percent growth reduction, probit analysis; 21 d
In short: as §1

**Q.** For `Nc1cc(-c2cc(F)c(Br)cc2F)nc(C(=O)O)c1Cl` [Compound 3], which “GR50 VIOSS” value is on record?
**A.** 4 g ai/ha

same assay, conditions: Table 8; dose for 80 percent growth reduction, probit analysis; 21 d

**Q.** `Nc1cc(-c2cc(F)c(Br)cc2F)nc(C(=O)O)c1Cl` [Compound 3] was tested. Which “GR80 VIOSS” value did it give?
**A.** 7 g ai/ha

same assay, conditions: Viola tricolor, post-emergence, 504 h; 35 g ai/ha; 21 days after application; read-out: Visual Gorowth Reduction (%) 21 days After Application VIOSS

**Q.** How did the pest or weed control at 35 g/ha turn out when `Nc1c(F)c(-c2cc(F)c(I)cc2F)nc(C(=O)O)c1Cl` [Compound 69] was run?
**A.** 85 to 94%

**Q.** `C=Cc1c(C(=O)O)nc(-c2ccc(C(F)(F)F)c(F)c2)c(F)c1N` [Compound 86] was tested. Which pest or weed control at 35 g/ha did it give?
**A.** 60 to 74%

same assay, conditions: Viola tricolor, post-emergence, 504 h; 70 g ai/ha; 21 days after application; read-out: Visual Gorowth Reduction (%) 21 days After Application VIOSS

**Q.** For `Nc1c(F)c(-c2cc(F)c(I)cc2F)nc(C(=O)O)c1Cl` [Compound 69], which pest or weed control at 70 g/ha is on record?
**A.** 95 to 100%

**Q.** How did the pest or weed control at 70 g/ha turn out when `C=Cc1c(C(=O)O)nc(-c2ccc(C(F)(F)F)c(F)c2)c(F)c1N` [Compound 86] was run?
**A.** 60 to 74%

same assay, conditions: Viola tricolor, post-emergence, 504 h; Table 8; 35 g ai/ha; post-emergent; 21 d; read-out: Visual Growth Reduction (%) 21 Days After Application VIOSS

**Q.** How did the pest or weed control at 35 g/ha turn out when `Nc1cc(-c2cc(F)c(Br)cc2F)nc(C(=O)O)c1Cl` [Compound 3] was run?
**A.** 95 to 100%

same assay, conditions: Viola tricolor, post-emergence, 504 h; Table 8; 70 g ai/ha; post-emergent; 21 d; read-out: Visual Growth Reduction (%) 21 Days After Application VIOSS

**Q.** For `Nc1cc(-c2cc(F)c(Br)cc2F)nc(C(=O)O)c1Cl` [Compound 3], which pest or weed control at 70 g/ha is on record?
**A.** 95 to 100%

same assay, conditions: probit analysis; dose for 50 percent growth reduction; 21 days after application

**Q.** With `Nc1c(F)c(-c2cc(F)c(I)cc2F)nc(C(=O)O)c1Cl` [Compound 69] as the molecule, how does the “GR50 VIOSS” value read?
**A.** 3 g ai/ha

**Q.** With `C=Cc1c(C(=O)O)nc(-c2ccc(C(F)(F)F)c(F)c2)c(F)c1N` [Compound 86] as the molecule, how does the “GR50 VIOSS” value read?
**A.** 21 g ai/ha

same assay, conditions: probit analysis; dose for 80 percent growth reduction; 21 days after application

**Q.** With `Nc1c(F)c(-c2cc(F)c(I)cc2F)nc(C(=O)O)c1Cl` [Compound 69] as the molecule, how does the “GR80 VIOSS” value read?
**A.** 8 g ai/ha

**Q.** With `C=Cc1c(C(=O)O)nc(-c2ccc(C(F)(F)F)c(F)c2)c(F)c1N` [Compound 86] as the molecule, how does the “GR80 VIOSS” value read?
**A.** 77 g ai/ha

test system: CIRAR: Canada thistle (Cirsium arvense); test: as above; format: in vivo; details: Cirsium arvense, post-emergence, 504 h; Table 8; 35 g ai/ha; post-emergent; 21 d; read-out: Visual Growth Reduction (%) 21 Days After Application CIRAR
In short: as §1

**Q.** With `Nc1cc(-c2cc(F)c(Br)cc2F)nc(C(=O)O)c1Cl` [Compound 3] as the molecule, how does the pest or weed control at 35 g/ha read?
**A.** 60 to 74%

same assay, conditions: Cirsium arvense, post-emergence, 504 h; Table 8; 70 g ai/ha; post-emergent; 21 d; read-out: Visual Growth Reduction (%) 21 Days After Application CIRAR

**Q.** For `Nc1cc(-c2cc(F)c(Br)cc2F)nc(C(=O)O)c1Cl` [Compound 3], which pest or weed control at 70 g/ha is on record?
**A.** 75 to 84%

same assay, conditions: Table 8; dose for 50 percent growth reduction, probit analysis; 21 d

**Q.** With `Nc1cc(-c2cc(F)c(Br)cc2F)nc(C(=O)O)c1Cl` [Compound 3] as the molecule, how does the “GR50 CIRAR” value read?
**A.** 18 g ai/ha

same assay, conditions: Table 8; dose for 80 percent growth reduction, probit analysis; 21 d

**Q.** `Nc1cc(-c2cc(F)c(Br)cc2F)nc(C(=O)O)c1Cl` [Compound 3] was tested. Which “GR80 CIRAR” value did it give?
**A.** 53 g ai/ha

test system: GALAP: cleavers (Galium aparine); test: as above; format: in vivo; details: Galium aparine, post-emergence, 504 h; Table 8; 35 g ai/ha; post-emergent; 21 d; read-out: Visual Growth Reduction (%) 21 Days After Application GALAP
In short: as §1

**Q.** With `Nc1cc(-c2cc(F)c(Br)cc2F)nc(C(=O)O)c1Cl` [Compound 3] as the molecule, how does the pest or weed control at 35 g/ha read?
**A.** 95 to 100%

same assay, conditions: Galium aparine, post-emergence, 504 h; Table 8; 70 g ai/ha; post-emergent; 21 d; read-out: Visual Growth Reduction (%) 21 Days After Application GALAP

**Q.** For `Nc1cc(-c2cc(F)c(Br)cc2F)nc(C(=O)O)c1Cl` [Compound 3], which pest or weed control at 70 g/ha is on record?
**A.** 95 to 100%

same assay, conditions: Table 8; dose for 50 percent growth reduction, probit analysis; 21 d

**Q.** `Nc1cc(-c2cc(F)c(Br)cc2F)nc(C(=O)O)c1Cl` [Compound 3] was tested. Which “GR50 GALAP” value did it give?
**A.** 5 g ai/ha

same assay, conditions: Table 8; dose for 80 percent growth reduction, probit analysis; 21 d

**Q.** For `Nc1cc(-c2cc(F)c(Br)cc2F)nc(C(=O)O)c1Cl` [Compound 3], which “GR80 GALAP” value is on record?
**A.** 7 g ai/ha

— patent US9113629B2, “4-amino-6-(4-substituted-phenyl)-picolinates and 6-amino-2-(4-substituted-phenyl)-pyrimidine-4-carboxylates and their use as herbicides” (DOW AGROSCIENCES LLC, priority 2013, dated 2015)
